The values below come from US20190255042A1, “APPLICATION OF HEDGEHOG PATHWAY INHIBITOR IN TREATING FIBROSIS DISEASES” (IMPACT THERAPEUTICS, INC, priority 2016, published 2019).

SMILES strings stand for the structures.

The test system of assay [1] is unilateral pulmonary fibrosis model in SD rats. The experiment in a line: Therapeutic efficacy in unilateral pulmonary fibrosis model in SD rats (bleomycin, dosing from D8). Format: in vivo. Also on record: Evaluation of injury and inflammatory lesions of left lung: Fibrotic lesion edge / Evaluation of injury and inflammatory lesions of left lung: Fibrosis lesion: scale not given here. To be noted: for Expression of Type I collagen (%) / Expression of α-SMA protein (%): left lung immunohistochemistry; for Evaluation of injury and inflammatory lesions of left lung: Fibrosis lesion / Evaluation of injury and inflammatory lesions of left lung: Fibrotic lesion edge: HE score; for Fibrosis area (left pulmonary): Masson trichrome. The method, then:
On the modeling day, rats were anesthetized and exposed to trachea. Bleomycin was injected into left trachea of each group (dosage: 3 mg/kg, volume: 1.0 ml/kg). Oral administration was performed on Day 8 after modeling, once a day. On Day 22, according to the KCI animal euthanasia SOP, animals in each group were given an overdose of sodium barbiturate and sacrificed under intraperitoneal anesthesia, the left lung was taken, the weight and volume of the left lung were measured, then fixed by formalin, the bronchioles were stained with HE, Masson trichrome. The bronchioles, final bronchiole and small pulmonary artery injury and inflammation invasion were evaluated by semi-quantitative score, and pulmonary fibrosis was evaluated by Ashcraft semi-quantitative score. Immunohistochemical staining of α-SMA, Type I collagen (Collagen-I) were performed at the same time, a full scan was performed by Hamamatsu NanoZoomer Digital Pathology (S210), the α-SMA positive area was semiquantitatively calculated from the unit area of the whole sheelt in pulmonary fibrosis foci, and the positive staining area of type-I collagent per unit of area was calculated.

The subject of assay [2] is lung fibrosis model in mice induced by bleomycin. The experiment in a line: Therapeutic efficacy in lung fibrosis model in mice induced by bleomycin. It is filed as in vivo, C57BL/6 mice. Particulars: n = 10, Mean ± Sem. The method, then:
Experimental Methods: 60 male C57BL/6 mice were randomize into 6 groups: Blank control group (Group 1, n=10), model group (Group 2, BLM, n=10), Compound A 10 mpk group (Group 3, n=10), compound A 20 mpk group (Group 4, n=10), Compound A 20 mpk +BIBF1120 50 mpk (Group 5, n=10), and BIBF1120 50 mpk positive reference group (Group 6, n=10). One week after the mice were acclimated to the environment, 10 mice in the blank control group were given 50 μl of normal saline in the trachea, and other 50 mice were given 50 μl BLM (0.66 mg/kg, 2 ml/kg) in the trachea. After BLM infusion, 50 mice in BLM infusion group were randomly assigned to start treatment on the 5th day, once a day, with a treatment cycle of 20 days. The whole process was 25 days. After the experiment, the lung tissues were fixed in 10% neutral formalin, dehydrated by alcohol gradient, embedded with paraffin, stained by hematoxylin-eosin (H&E) and Masson trichrome staining. And the inflammatory area and degree of fibrosis of the lung tissues in mice were evaluated by APERIO ScanScope. Immunohistochemical staining of lung tissue was performed to quantify α-SMA positive fibroblasts in lung tissue and to calculate the percentage (%) of α-SMA staining in the entire lung stroma.

Assay [3] has as its system unilateral pulmonary fibrosis model in SD rats. The experiment in a line: Prophylactic therapeutic efficacy in unilateral pulmonary fibrosis model in SD rats (bleomycin). It is filed as in vivo. Also on record: key to Fibrosis score (Ashcraft): Ashcraft semi-quantitative fibrosis score; Evaluation of injury and inflammatory lesions of left lung: Fibrotic lesion edge / Evaluation of injury and inflammatory lesions of left lung: Fibrosis lesion: scale not given here. The method, then: 40 male SD rats were randomized into Model group (Group 1, n=8), positive drug group BIBF1120 60 mg/kg/d group (Group 2, n=8), Compound A 5 mg/kg/d group (Group 3, n=8), compound A 10 mg/kg/d group (Group 4, n=8) and Compound A 20 mg/kg/d (Group 5, n=8). On the modeling day, rats were anesthetized and exposed to trachea. Bleomycin was injected into trachea of each group (dosage: 3 mg/kg, volume: 1.0 ml/kg). Oral administration was performed 2 hours after modeling, once a day. On Day 15, all the animals were killed, the left lung was taken, the weight and volume of the left lung were measured, then fixed by formalin, the bronchioles were stained with HE, Masson trichrome. The bronchioles, final bronchiole and small pulmonary artery injury and inflammation invasion were evaluated by semi-quantitative score, and pulmonary fibrosis was evaluated by Ashcraft semi-quantitative score.

The test system of assay [4] is foodborne non-alcoholic fatty hepatitis (NASH) model in mice. To be noted: Hirsova et al., Plos One 2013; cited from earlier work.
For assay [5], the system named is bleomycin-induced lung injury in a mouse model. To be noted: Moshai et al., 2014; cited from earlier work.
Setting [6] is: 100 mpk oral D8 to D22, mean ± sem, n = 6.
The mark [7] stands for this setting: 100 mpk oral D8 to D22 after modeling, mean ± sem.
Setting [8] is: 60 mg/kg/d oral from modeling day, D15, HE score, mean ± sem, n = 8.
Where [9] appears, read: 60 mg/kg/d oral from modeling day, D15, mean ± sem, n = 8.
The mark [10] stands for this setting: 50 mpk oral D8 to D22, mean ± sem, n = 8.
The mark [11] stands for this setting: 50 mpk oral D8 to D22 after modeling, mean ± sem.

Take `COC(=O)c1ccc2c(c1)NC(=O)/C2=C(\Nc1ccc(N(C)C(=O)CN2CCN(C)CC2)cc1)c1ccccc1` [BIBF1120, Nintedanib ethylsulfonate, reference compound]: in assay [1] (setting [6]), the “Expression of Type I collagen (%)” value is recorded as 18.99 ± 1.19% and the “Expression of α-SMA protein (%)” value is recorded as 7.36 ± 0.55%. In addition, in assay [1] (setting [7]), the “Evaluation of injury and inflammatory lesions of left lung: Fibrosis lesion” value (“Evaluation … Fibrosis lesion” below) is listed as 7.00 ± 0.36; the “Evaluation of injury and inflammatory lesions of left lung: Fibrotic lesion edge” value (from here on “Evaluation … Fibrotic lesion edge”) came to 5.31 ± 0.28; the “Fibrosis area (left pulmonary)” value is reported as 73.81 ± 1.14; the “Fibrosis Score 1-3 (%)” value worked out at 88.33 ± 4.01%. Besides, in assay [1] (setting [7]), the “Fibrosis Score 4-8 (%)” value came out at 11.67 ± 4.01%, the “Fibrosis score (Ashcraft)” value was determined as 2.55 ± 0.18, the “Volume of left lung” value is 1.23 ± 0.09 cm^3 and the “Weight of left lung” value came out at 1.31 ± 0.09 g. In assay [2] (50 mpk oral D5 to D25), the Inflammatory infiltration area is 4.33 ± 1.39 mm^2 and the “Total lung tissue area” value came out at 87.02 ± 4.05 mm^2. For the same compound, in assay [2] (50 mpk oral D5 to D25, ###p < 0.001 vs. BLM model group), the “Percentage of inflammatory area (%)” value is 4.67 ± 1.32^### %. Also, in assay [2] (BIBF1120 50 mpk oral D5 to D25, lung tissue immunohistochemical staining), the “Percentage of positive α-SMA (%)” value was found to be 0.96 ± 0.20%. In assay [3] (setting [8]), the “Evaluation … Fibrosis lesion” value turned out to be 7.88 ± 0.48; the “Evaluation … Fibrotic lesion edge” value was 5.50 ± 0.25. Also, in assay [3] (60 mg/kg/d oral from modeling day, D15, Masson trichrome, mean ± sem, n = 8), the “Fibrosis area (left pulmonary fibrosis)” value is 77.85 ± 10.90. For the same compound, in assay [3] (setting [9]), the “Fibrosis Score 1-3 (%)” value turned out to be 75.00 ± 23.90%, the “Fibrosis Score 4-8 (%)” value is reported as 25.00 ± 23.90%, the “Fibrosis score (Ashcraft)” value came to 3.15 ± 0.65 and the “Volume of left lung” value came to 1.24 ± 0.17 cm^3. The “Weight of left lung” value in assay [3] (setting [9]) is reported as 1.18 ± 0.14 g. Besides, the “average score of fibrosis in the entire fibrosis lesion (ashcraft)” value in assay [3] (BIBF1120 60 mg/kg/d, compound A 5, 10, 20 mg/kg/d) is recorded as “about 3 points”.
Turning to `CS(=O)(=O)c1ccc(C(=O)Nc2ccc(Cl)c(-c3ccccn3)c2)c(Cl)c1` [GDC0449, vismodegib, reference compound], the “damage and inflammatory response of terminal bronchioles within fibrosis lesions and pulmonary small artery compared with model group” value in assay [1] (14 consecutive days, BIBF1120 100, Compound A 5, 15, 30, GDC0449 50 mg/kg/d, p<0.001) is on record as “significantly reduced”. Moreover, in assay [1] (setting [10]), the “Expression of Type I collagen (%)” value was 19.06 ± 0.70% and the “Expression of α-SMA protein (%)” value is given as 7.74 ± 0.59%. Besides, in assay [1] (setting [11]), the “Evaluation … Fibrosis lesion” value came to 6.38 ± 0.17; the “Evaluation … Fibrotic lesion edge” value is listed as 4.80 ± 0.22; the “Fibrosis area (left pulmonary)” value is given as 67.96 ± 3.70; the “Fibrosis Score 1-3 (%)” value stood at 95.00 ± 2.67%. In assay [1] (setting [11]), the “Fibrosis Score 4-8 (%)” value was 5.00 ± 2.67%, the “Fibrosis score (Ashcraft)” value is on record as 2.16 ± 0.11 and the “Weight of left lung” value turned out to be 1.29 ± 0.09 g. In assay [1] (BIBF1120 100, Compound A 5, 15, 30, GDC0449 50 mg/kg/d, p<0.01), the “degree of pulmonary fibrosis (Ashcraft score) compared with model group” value was “significantly better”. Moreover, the “amount of Type I collagen deposition in the fibrotic lesions compared with model group” value in assay [1] (BIBF1120 100 mpk, Compound A 5 mpk, GDC0449 50 mpk) is given as “no significant difference”. Also, the “positive rate of α-SMA in fibrosis lesions per unit area compared with model group” value in assay [1] (BIBF1120 100 mpk, GDC0449 50 mpk) was “no significant difference”. In assay [1] (compound A 5, 15 and 30 mg/kg, GDC0449 50 mg/kg/d, 14 consecutive days), the “treatment effect on fibrosis compared with BIBF1120 100 mg/kg/d” value is on record as “the same as that of BIBF1120”. Besides, the “effect on liver injury, hepatic inflammation and fibrosis” value in assay [4] is “attenuating hepatic inflammation and fibrosis”. Besides, the “efficacy on pulmonary fibrosis” value in assay [5] is listed as “no efficacy”.
Turning to `CN(C)c1ccccc1CN1CCCN(Cc2ccccc2N(C)C)C1c1ccncc1` [GANT61], in assay [5], the “efficacy on pulmonary fibrosis” value is “good therapeutic effect”.
